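Step 1: Grow cells in 96-well plates. Step 2: Expose to compound for 48 hours at 5 concentrations. Step 3: Interpolate endpoints linearly; if unreached, use highest concentration. GI50 is the concentration that inhibits growth by half.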 Calls of active or inactive are those of the source. Cut-off read from the data, not from the text of the source: active = GI50 up to about 1.1 µM and inactive = higher.
Experiments:
Experiment in all cases: growth of human tumour cells (NCI), 48 h
[1] = test system: 786-0
[2] = test system: A498
[3] = test system: A549
[4] = test system: ACHN
[5] = test system: BT-549
[6] = test system: CAKI-1
[7] = test system: CCRF-CEM
[8] = test system: COLO 205
[9] = test system: DU-145
[10] = test system: EKVX
[11] = test system: HCC 2998
[12] = test system: HCT-116
[13] = test system: HCT-15
[14] = test system: HOP-62
[15] = test system: HT-29
[16] = test system: Hs-578T
[17] = test system: IGROV-1
[18] = test system: K562
[19] = test system: KM12
[20] = test system: LOX IMVI
[21] = test system: M14
[22] = test system: MCF7
[23] = test system: MDA-MB-435
[24] = test system: MDA-N
[25] = test system: MOLT-4
[26] = test system: Malme-3M
[27] = test system: NCI-H226
[28] = test system: NCI-H23
[29] = test system: NCI-H460
[30] = test system: NCI-H522
[31] = test system: NCI/ADR-RES
[32] = test system: OVCAR-3
[33] = test system: OVCAR-4
[34] = test system: OVCAR-5
[35] = test system: OVCAR-8
[36] = test system: PC-3
[37] = test system: RPMI-8226
[38] = test system: RXF 393
[39] = test system: SF-268
[40] = test system: SF-295
[41] = test system: SF-539
[42] = test system: SK-MEL-28
[43] = test system: SK-MEL-2
[44] = test system: SK-MEL-5
[45] = test system: SK-OV-3
[46] = test system: SN12C
[47] = test system: SNB-19
[48] = test system: SNB-75
[49] = test system: SW-620
[50] = test system: T47D
[51] = test system: TK-10
[52] = test system: U-251
[53] = test system: UACC-257
[54] = test system: UACC-62
[55] = test system: UO-31
[56] = test system: HL-60
[57] = test system: HOP-92
[58] = test system: MDA-MB-231

In the case of `Cc1n2nc(N)sc2n[n+]1CC(=O)c1ccccc1`, the GI50 [1] is reported as > 100 µM (inactive), the GI50 [2] is reported as > 100 µM (inactive) and the GI50 [3] is reported as > 100 µM (inactive). The GI50 [4] was > 100 µM (inactive), the GI50 [5] was > 100 µM (inactive) and the GI50 [6] was > 100 µM (inactive). The GI50 [7] was 70 µM (inactive), the GI50 [8] was > 100 µM (inactive) and the GI50 [9] was > 100 µM (inactive). For the same compound, the GI50 [10] was > 100 µM (inactive), the GI50 [11] was > 100 µM (inactive) and the GI50 [12] was > 100 µM (inactive). For the same compound, the GI50 [13] was over 100 µM, the GI50 [14] was > 100 µM (inactive) and the GI50 [15] was > 100 µM (inactive). The GI50 [16] was > 100 µM (inactive), the GI50 [17] was > 100 µM (inactive) and the GI50 [18] was > 100 µM (inactive). The GI50 [19] was > 100 µM (inactive), the GI50 [20] was > 100 µM (inactive) and the GI50 [21] was > 100 µM (inactive). The GI50 [22] was > 100 µM (inactive), the GI50 [23] was > 100 µM (inactive) and the GI50 [24] was > 100 µM (inactive). The GI50 [25] was > 100 µM (inactive), the GI50 [26] was > 100 µM (inactive) and the GI50 [27] was > 100 µM (inactive). The GI50 [28] was > 100 µM (inactive), the GI50 [29] was > 100 µM (inactive) and the GI50 [30] was > 100 µM (inactive). For the same compound, the GI50 [31] was > 100 µM (inactive), the GI50 [32] was > 100 µM (inactive) and the GI50 [33] was > 100 µM (inactive). The GI50 [34] was > 100 µM (inactive), the GI50 [35] was > 100 µM (inactive) and the GI50 [36] was > 100 µM (inactive). The GI50 [37] was > 100 µM (inactive), the GI50 [38] was > 100 µM (inactive) and the GI50 [39] was > 100 µM (inactive). The GI50 [40] was > 100 µM (inactive), the GI50 [41] was > 100 µM (inactive) and the GI50 [42] was > 100 µM (inactive). The GI50 [43] was > 100 µM (inactive), the GI50 [44] was > 100 µM (inactive) and the GI50 [45] was 24.3 µM (inactive). The GI50 [46] was > 100 µM (inactive), the GI50 [47] was > 100 µM (inactive) and the GI50 [48] was > 100 µM (inactive). For the same compound, the GI50 [49] was > 100 µM (inactive), the GI50 [50] was > 100 µM (inactive) and the GI50 [51] was > 100 µM (inactive). For the same compound, the GI50 [52] was > 100 µM (inactive), the GI50 [53] was > 100 µM (inactive) and the GI50 [54] was 14 µM (inactive). The GI50 [55] was > 100 µM (inactive).
In the case of `Nc1nc(N)c(C2=CCN(Cc3ccccc3)CC2)c(=O)[nH]1`, the GI50 [1] is reported as > 100 µM (inactive), the GI50 [2] is reported as > 100 µM (inactive) and the GI50 [3] is reported as > 100 µM (inactive). The GI50 [4] was > 100 µM (inactive), the GI50 [5] was > 100 µM (inactive) and the GI50 [6] was > 100 µM (inactive). For the same compound, the GI50 [7] was > 100 µM (inactive), the GI50 [8] was > 100 µM (inactive) and the GI50 [9] was > 100 µM (inactive). The GI50 [10] was > 100 µM (inactive), the GI50 [12] was > 100 µM (inactive) and the GI50 [13] was over 100 µM. The GI50 [56] was > 100 µM (inactive), the GI50 [14] was > 100 µM (inactive) and the GI50 [57] was > 100 µM (inactive). For the same compound, the GI50 [15] was > 100 µM (inactive), the GI50 [16] was > 100 µM (inactive) and the GI50 [17] was > 100 µM (inactive). For the same compound, the GI50 [18] was > 100 µM (inactive), the GI50 [19] was > 100 µM (inactive) and the GI50 [21] was > 100 µM (inactive). For the same compound, the GI50 [22] was > 100 µM (inactive), the GI50 [58] was > 100 µM (inactive) and the GI50 [23] was > 100 µM (inactive). For the same compound, the GI50 [24] was > 100 µM (inactive), the GI50 [25] was > 100 µM (inactive) and the GI50 [26] was > 100 µM (inactive). For the same compound, the GI50 [27] was > 100 µM (inactive), the GI50 [28] was > 100 µM (inactive) and the GI50 [29] was > 100 µM (inactive). The GI50 [30] was > 100 µM (inactive), the GI50 [31] was > 100 µM (inactive) and the GI50 [32] was > 100 µM (inactive). The GI50 [33] was > 100 µM (inactive), the GI50 [34] was > 100 µM (inactive) and the GI50 [35] was > 100 µM (inactive). The GI50 [36] was > 100 µM (inactive), the GI50 [37] was > 100 µM (inactive) and the GI50 [38] was > 100 µM (inactive). The GI50 [39] was > 100 µM (inactive), the GI50 [40] was > 100 µM (inactive) and the GI50 [41] was > 100 µM (inactive). For the same compound, the GI50 [42] was > 100 µM (inactive), the GI50 [43] was > 100 µM (inactive) and the GI50 [44] was > 100 µM (inactive). For the same compound, the GI50 [45] was > 100 µM (inactive), the GI50 [46] was > 100 µM (inactive) and the GI50 [47] was > 100 µM (inactive). The GI50 [48] was > 100 µM (inactive), the GI50 [49] was > 100 µM (inactive) and the GI50 [50] was > 100 µM (inactive). The GI50 [52] was > 100 µM (inactive), the GI50 [53] was > 100 µM (inactive) and the GI50 [54] was > 100 µM (inactive). For the same compound, the GI50 [55] was > 100 µM (inactive).
